According to patent US12240857B2 (priority 2017, dated 2025):
Read-outs that look alike come from different tables or passages of the source.

How the values were obtained:
[1] = tested on: EBOV mucin-domain-deleted glycoprotein pseudotyped VSV; test: microbe, parasite or virus in culture; format: cell-based, Zaire ebolavirus; conditions: Zaire ebolavirus, Vero
[2] = tested on: BDBV mucin-domain-deleted glycoprotein pseudotyped VSV; test: microbe, parasite or virus in culture; format: cell-based, Bundibugyo ebolavirus; conditions: Vesicular stomatitis virus, Vero
wild-type Ebola Zaire [3] = tested on: wild-type Ebola Zaire
wild-type Sudan Gulu [4] = tested on: wild-type Sudan Gulu
in vitro [5] = conditions: African green monkey
in vitro [6] = conditions: human, microsomes
in vitro [7] = conditions: mouse, microsomes
in vitro [8] = conditions: monkey, microsomes
wild-type Ebola Zaire [9] = test: microbe, parasite or virus in culture; conditions: Zaire ebolavirus, HeLa, read-out: Ebola Zaire EC50
wild-type Sudan Gulu [10] = test: microbe, parasite or virus in culture; conditions: Sudan ebolavirus, HeLa, read-out: Sudan Gulu EC50
[11] = tested on: parent VSV virus expressing the native VSV glycoprotein; test: microbe, parasite or virus in culture; format: cell-based; conditions: Vesicular stomatitis virus, Vero, read-out: EC50 Pseudotype Assays VSV
[12] = tested on: full-length Ebola Zaire GP pseudotyped VSV (EBOV_FL); test: microbe, parasite or virus in culture; format: cell-based; conditions: Zaire ebolavirus, read-out: EC50 Pseudotype Assays EBOV_FL
[13] = tested on: full-length Marburgvirus (MARV) GP pseudotyped VSV; test: microbe, parasite or virus in culture; format: cell-based, Marburg marburgvirus; conditions: for EC50: Orthomarburgvirus, read-out: EC50 Pseudotype Assays MARV
[14] = tested on: full-length LASV glycoprotein pseudotyped VSV; test: microbe, parasite or virus in culture; format: cell-based, Lassa virus; conditions: Vesicular stomatitis virus, read-out: EC50 Pseudotype Assays LASV
[15] = tested on: full-length SUDV GP pseudotyped VSV; test: microbe, parasite or virus in culture; format: cell-based, Sudan ebolavirus; conditions: Vesicular stomatitis virus, read-out: EC50 Pseudotype Assays SUDV
[16] = read-out: EC50 Pseudotype Assays EBOV
[17] = read-out: EC50 Pseudotype Assays BDBV

| SMILES | EC50 ([1]; read-out: EC50 EBOV) | EC50 ([2]; read-out: EC50 BDBV) | Ebola Zaire SI (CC50/EC50) (wild-type Ebola Zaire [3]) | Sudan Gulu SI (CC50/EC50) (wild-type Sudan Gulu [4]) | CC50 (in vitro [5]; CC50) | half-life (in vitro [6]) | half-life (in vitro [7]) | half-life (in vitro [8]) | EC50 (wild-type Ebola Zaire [9]) | EC50 (wild-type Sudan Gulu [10]) | EC50 [1, 16] | EC50 [2, 17] | EC50 [11] | EC50 [12] | EC50 [13] | EC50 [14] | CC50 (in vitro [5]; Cytotox CC50) | EC50 [15] | other results |
| --- | --- | --- | --- | --- | --- | --- | --- | --- | --- | --- | --- | --- | --- | --- | --- | --- | --- | --- | --- |
| CCC12CC3CC(C(=O)N[C@H]4CC[C@H](N)CC4)(C1)CC(c1ccccc1)(C3)C2 (some centres unmarked) [Example A85] | 13 nM | 96 nM | 112 | 64 | 12100 nM | > 2 h | > 2 h | 1.4 h | 100 nM | 180 nM | – | – | – | – | – | – | – | – | – |
| O=C(NC1CCNCC1)C12CC3CC(C1)CC(c1ccccc1)(C3)C2 [Example A63] | 80 nM | 80 nM | >16 | – | > 10000 nM | 4.3 h | > 3.5 h | 3.95 h | 390 nM | – | 80 nM | 80 nM | > 10000 nM | 40 nM | 2800 nM | > 10000 nM | > 10000 nM | – | – |
| CN(C)CCCNc1nc(C23CC4CC(CC(C4)C2)C3)cs1 [Example D29, (3-{[4-(adamantan-1-yl)-1,3-thiazol-2-yl]amino}propyl) dimethylamine] | – | – | 66.1 | 203 | 9400 nM | – | – | – | 920 nM | 300 nM | 170 nM | 160 nM | > 10000 nM | 180 nM | 660 nM | > 10000 nM | > 10000 nM | 1440 nM | EC50 ([1]; 24 h, read-out: EC50 EBOV): 170 nM; EC50 ([2]; 24 h, read-out: EC50 BDBV): 160 nM; MARV pseudotyped virus EC50 concentration (in words) [13]: sub-micromolar |
| CC12CC3CC(C(=O)NC4CCNCC4)(C1)CC(c1ccccc1)(C3)C2 (centres unmarked) [Example A68] | 35 nM | 160 nM | 134 | 181 | > 10000 nM | 3.12 h | > 4 h | 2.37 h | 180 nM | 130 nM | 40 nM | 170 nM | > 10000 nM | 40 nM | 2800 nM | > 10000 nM | > 10000 nM | 410 nM | – |
